pIC50: −log10 of the molar value.
System: 996289-038-R-J1-PDC spheroid viability
Experiment: Anticancer human tumor 996289-038-R-J1-PDC patient-derived colon adenocarcinoma cell line growth inhibition [PI3K]
Conditions: spheroids with HUVEC and MSC; for pIC50: curve of first compound; for viability, T/C: stronger effect = lower value
Method in brief: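 Targeted small molecules plus PI3K inhibitors, half-log dose series from Cmax (default top 10 microM), were applied to heterotypic spheroids of cancer cells with HUVEC and MSCs. Viability indicated growth inhibition.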
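Also: spheroids exposed to compounds for seven days before viability read.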
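For viability, T/C in this document: luminescence used as a proxy for viable cell amount; percent viability relative to DMSO vehicle control as 100%.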

Which results are given for `CCCS(=O)(=O)Nc1ccc(F)c(C(=O)c2c[nH]c3ncc(-c4ccc(Cl)cc4)cc23)c1F` + CC(Nc1ncnc2nc[nH]c12)c1cc2cccc(Cl)c2c(=O)n1-c1ccccc1?
pIC50 (second compound 0.0316 µM): 5.19; pIC50 (second compound 0.1 µM): 5.16; pIC50 (second compound 0.316 µM): 5.17; pIC50 (second compound 1 µM): 5.18; pIC50 (second compound 3.16 µM): 5.18; pIC50 (second compound 10 µM): 5.23; viability, T/C (second compound 0.0316 µM, first compound 0.0316 µM): 99.5%; viability, T/C (second compound 0.0316 µM, first compound 0.1 µM): 98.8%; viability, T/C (second compound 0.0316 µM, first compound 0.316 µM): 103%; viability, T/C (second compound 0.0316 µM, first compound 1 µM): 97.1%; viability, T/C (second compound 0.0316 µM, first compound 3.16 µM): 98.6%; viability, T/C (second compound 0.0316 µM, first compound 10 µM): 21.1%; viability, T/C (second compound 0.1 µM, first compound 0.0316 µM): 103%; viability, T/C (second compound 0.1 µM, first compound 0.1 µM): 96.8%; viability, T/C (second compound 0.1 µM, first compound 0.316 µM): 119%; viability, T/C (second compound 0.1 µM, first compound 1 µM): 107%; viability, T/C (second compound 0.1 µM, first compound 3.16 µM): 111%; viability, T/C (second compound 0.1 µM, first compound 10 µM): 22.2%; viability, T/C (second compound 0.316 µM, first compound 0.0316 µM): 89.8%; viability, T/C (second compound 0.316 µM, first compound 0.1 µM): 103%; viability, T/C (second compound 0.316 µM, first compound 0.316 µM): 107%; viability, T/C (second compound 0.316 µM, first compound 1 µM): 106%; viability, T/C (second compound 0.316 µM, first compound 3.16 µM): 99.7%; viability, T/C (second compound 0.316 µM, first compound 10 µM): 23.5%; viability, T/C (second compound 1 µM, first compound 0.0316 µM): 105%; viability, T/C (second compound 1 µM, first compound 0.1 µM): 98.2%; viability, T/C (second compound 1 µM, first compound 0.316 µM): 96.9%; viability, T/C (second compound 1 µM, first compound 1 µM): 89%; viability, T/C (second compound 1 µM, first compound 3.16 µM): 102%; viability, T/C (second compound 1 µM, first compound 10 µM): 23.2%; viability, T/C (second compound 3.16 µM, first compound 0.0316 µM): 94.9%; viability, T/C (second compound 3.16 µM, first compound 0.1 µM): 95.4%; viability, T/C (second compound 3.16 µM, first compound 0.316 µM): 93.2%; viability, T/C (second compound 3.16 µM, first compound 1 µM): 85.6%; viability, T/C (second compound 3.16 µM, first compound 3.16 µM): 101%; viability, T/C (second compound 3.16 µM, first compound 10 µM): 24.2%; viability, T/C (second compound 10 µM, first compound 0.0316 µM): 87%; viability, T/C (second compound 10 µM, first compound 0.1 µM): 87.8%; viability, T/C (second compound 10 µM, first compound 0.316 µM): 88.3%; viability, T/C (second compound 10 µM, first compound 1 µM): 82.5%; viability, T/C (second compound 10 µM, first compound 3.16 µM): 99.6%; viability, T/C (second compound 10 µM, first compound 10 µM): 17.5%

Source: PubChem BioAssay AID1963965 (Molecular Pharmacology Branch, DTP, NCI, 2024)
